Assays:
[1] = biological target: T1, baculovirus-expressed human trkA cytoplasmic domain (Homo sapiens, UniProt P04629); assay: Inhibition of trkA tyrosine kinase activity (ELISA-based assay); format: biochemical; details: for IC50: 40 μM ATP
T1 construct: baculovirus-expressed human trkA cytoplasmic domain; made in house; host or cells: baculovirus expression system
Experimental: Selected cyclic substituted fused pyrrolocarbazole and isoindolone compounds were tested for their ability to inhibit the kinase activity of baculovirus-expressed human trkA cytoplasmic domain using an ELISA-based assay as previously described (Angeles et al., Anal. Biochem. 236: 49-55, 1996). Briefly, the 96-well microtiter plate was coated with substrate solution (recombinant human phospholipase C-γ1/glutathione S-transferase fusion protein (Rotin et al., EMBO J., 11: 559-567, 1992). Inhibition studies were performed in 100 μl assay mixtures containing 50 mM Hepes, pH 7.4, 40 μM ATP, 10 mM MnCl2, 0.1% BSA, 2% DMSO, and various concentrations of inhibitor. The reaction was initiated by addition of trkA kinase and allowed to proceed for 15 minutes at 37° C. An antibody to phosphotyrosine (UBI) was then added, followed by a secondary enzyme-conjugated antibody, alkaline phosphatase-labelled goat antII-mouse IgG (Bio-Rad). The activity of the bound enzyme was measured via an amplified detection system (Gibco-BRL). Inhibition data were analyzed using the sigimoidal dose-response (variable slope) equation in GraphPad Prism.

[2] = biological target: T2, VEGF receptor (human flk-1, KDR, VEGFR2) kinase domain (Homo sapiens, UniProt P35968); assay: Inhibition of vascular endothelial growth factor receptor kinase activity (ELISA); format: biochemical; details: for VEGF receptor kinase activity % Inh. @ 300 nM (values in parentheses) / inhibition at 0.3 µM: 300 nM compound; for IC50: 40 μM ATP; for inhibition at 0.3 µM: read-out: VEGF receptor kinase activity % Inh. @ 300 nM (values in parentheses)
T2 construct: VEGF receptor (human flk-1, KDR, VEGFR2) kinase domain; made in house; host or cells: baculovirus expression system
T2 sequence (P35968 834-1162 limits assumed): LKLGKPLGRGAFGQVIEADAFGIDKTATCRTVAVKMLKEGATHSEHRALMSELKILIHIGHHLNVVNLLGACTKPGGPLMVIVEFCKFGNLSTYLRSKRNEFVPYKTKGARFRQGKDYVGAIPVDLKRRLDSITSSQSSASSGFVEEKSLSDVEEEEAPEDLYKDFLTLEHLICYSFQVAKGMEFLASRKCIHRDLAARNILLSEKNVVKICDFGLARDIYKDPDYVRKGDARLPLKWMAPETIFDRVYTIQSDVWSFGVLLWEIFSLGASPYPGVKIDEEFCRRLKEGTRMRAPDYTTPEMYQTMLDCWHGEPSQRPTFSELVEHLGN
Experimental: Cyclic substituted fused pyrrolocarbazole and isoindolone compounds were examined for their inhibitory effects on the kinase activity of baculovirus-expressed VEGF receptor (human flk-1, KDR, VEGFR2) kinase domain using the procedure described for the trkA kinase ELISA assay described above. The kinase reaction mixture, consisting of 50 mM Hepes, pH 7.4, 40 μM ATP, 10 mM MnCl2, 0.1% BSA, 2% DMSO, and various concentrations of inhibitor, was transferred to PLC-γ/GST-coated plates. VEGFR kinase was added and the reaction was allowed to proceed for 15 min. at 37 C. Detection of phosphorylated product was accomplished by addition of antII-phosphotyrosine antibody (UBI). A secondary enzymeconjugated antibody was delivered to capture the antibody-phosphorylated PLC-γ/GST complex. The activity of the bound enzyme was measured via an amplified detection system (Gibco-BRL). Inhibition data were analyzed using the sigmoidal dose-response (variable slope) equation in GraphPad Prism.

[3] = biological target: T3, trkA (NIH3T3 cells transfected with trkA) (Homo sapiens, UniProt P04629); assay: Inhibition of NGF-stimulated trk phosphorylation in a whole cell preparation; format: cell-based; details: NGF 10 ng/ml; for Cell Score @ 100 nM (percent decrease in trk protein band): 100 nM compound; for Cell Score @ 1 uM (percent decrease in trk protein band): 1 uM compound
T3 construct: expressed in transfected cells; host or cells: NIH3T3
T3 sequence (P04629 33-796, species assumed): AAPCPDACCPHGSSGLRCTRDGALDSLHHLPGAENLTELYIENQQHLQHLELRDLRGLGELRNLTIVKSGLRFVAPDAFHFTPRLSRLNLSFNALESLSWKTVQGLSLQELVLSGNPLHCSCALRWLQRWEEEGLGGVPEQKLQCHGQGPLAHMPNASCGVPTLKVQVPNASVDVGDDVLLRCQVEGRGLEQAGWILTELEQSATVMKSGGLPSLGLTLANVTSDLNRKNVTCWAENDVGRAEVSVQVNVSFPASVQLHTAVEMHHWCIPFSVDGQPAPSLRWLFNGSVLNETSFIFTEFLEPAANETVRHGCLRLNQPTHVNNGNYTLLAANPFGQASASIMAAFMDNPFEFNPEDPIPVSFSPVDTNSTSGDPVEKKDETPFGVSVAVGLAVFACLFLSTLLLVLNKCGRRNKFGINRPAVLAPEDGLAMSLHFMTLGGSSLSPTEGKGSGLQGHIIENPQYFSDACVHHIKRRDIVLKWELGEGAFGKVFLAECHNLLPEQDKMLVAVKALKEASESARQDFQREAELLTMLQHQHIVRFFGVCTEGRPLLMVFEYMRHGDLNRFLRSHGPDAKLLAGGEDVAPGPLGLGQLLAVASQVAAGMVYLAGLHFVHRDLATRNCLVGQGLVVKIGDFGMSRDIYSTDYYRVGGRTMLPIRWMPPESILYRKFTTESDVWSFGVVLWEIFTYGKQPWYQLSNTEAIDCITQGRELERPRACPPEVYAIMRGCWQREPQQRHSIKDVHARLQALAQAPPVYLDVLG
Experimental: NIH3T3 cells transfected with trkA were grown in 100 mm dishes. Subconfluent cells were serum-starved by replacing media with serum-free 0.05% BSA-DMEM containing compound (100 nM and 1 μM) or DMSO (added to controls) for one hour at 37° C. NGF (Harlan/Bioproducts for Science) was then added to the cells at a concentration of 10 ng/ml for 5 minutes. Cells were lysed in buffer containing detergent and protease inhibitors. Clarified cell lysates were normalized to protein using BCA method and immunoprecipitated with antII-trk antibody. Polyclonal antII-trk antibody was prepared against a peptide corresponding to the 14 amino acids at the carboxy terminus of trk (Martin-Zanca et al., Mol. Cell. Biol. 9: 24-33, 1989). The immune complexes were collected on Protein A Sepharose beads (Sigma Chem. Co., St. Lois, Mo.), separated by SDS polyacrylamide gel electrophoresis (SDS-PAGE), and transferred to a polyvinylidene difluoride (PVDF) membrane. The membrane was immunoblotted with antII-phosphotyrosine antibody (UBI), followed by incubation with horseradish peroxidase coupled goat antII-mouse IgG (Bio-Rad Laboratories, Hercules, Calif.). Phosphorylated proteins were visualized using ECL (Arnersham Life Science, Inc., Arlington Heights, Ill.). The area of the trk protein band was measured and compared to NGF-stimulated control. The inhibition scoring system used, based on percent decrease in trk protein band, was as follows: 0=no decrease; 1=1-25%; 2=26-49%; 3=50-75%; 4=76-100%.

T1 sequence (P04629 440-796 limits assumed): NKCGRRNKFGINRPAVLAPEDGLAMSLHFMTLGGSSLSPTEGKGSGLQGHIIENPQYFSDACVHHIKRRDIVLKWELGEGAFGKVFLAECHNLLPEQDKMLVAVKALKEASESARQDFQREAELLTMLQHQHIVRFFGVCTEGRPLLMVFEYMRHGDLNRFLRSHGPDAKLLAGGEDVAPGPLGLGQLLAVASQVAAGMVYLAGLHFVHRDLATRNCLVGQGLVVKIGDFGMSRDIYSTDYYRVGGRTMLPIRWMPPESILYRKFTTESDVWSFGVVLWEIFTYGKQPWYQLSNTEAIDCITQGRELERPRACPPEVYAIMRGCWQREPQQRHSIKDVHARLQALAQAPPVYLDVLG

CCN1CCCC(O)(C2c3ccccc3-c3c4c(c5c([nH]c6ccccc65)c32)CNC4=O)C1 (mixture of isomers) [II-16]
trkA kinase activity % Inh. @ 300 nM (values in parentheses) ([1]; 300 nM compound): (38) %

C=C1COC(C)(C2c3ccccc3-c3c4c(c5c([nH]c6ccccc65)c32)CNC4=O)C1 (mixture of isomers) [II-25]
trkA kinase activity % Inh. @ 300 nM (values in parentheses) ([1]; 300 nM compound): (27) %

COCCOCOCC1(C2c3ccccc3-c3c4c(c5c([nH]c6ccccc65)c32)CNC4=O)CCC(=O)O1 (mixture of isomers) [II-31]
IC50 [1]: 173 nM

CCC1(C2(CO)CCCO2)c2ccccc2-c2c3c(c4c([nH]c5ccccc54)c21)CNC3=O (mixture of isomers) [II-34]
VEGF receptor kinase activity % Inh. @ 300 nM (values in parentheses) [2]: (52) % | trkA kinase activity % Inh. @ 300 nM (values in parentheses) ([1]; 300 nM compound): (38) %

O=C1NCc2c1c1c(c3[nH]c4ccccc4c23)C(C2OCCC2O)c2ccccc2-1 (mixture of isomers) [II-43]
IC50 [1]: 110 nM

CC1(C)OC2CC(O)(C3c4ccccc4-c4c5c(c6c([nH]c7ccccc76)c43)CNC5=O)OC2O1 (mixture of isomers) [II-48]
trkA kinase activity % Inh. @ 300 nM (values in parentheses) ([1]; 300 nM compound): (46) %

CCOC1COCC(C)(C2c3ccccc3-c3c4c(c5c([nH]c6ccccc65)c32)CNC4=O)O1 (mixture of isomers) [II-51bc]
VEGF receptor kinase activity % Inh. @ 300 nM (values in parentheses) ([2]; 0.3 µM): (62) % | trkA kinase activity % Inh. @ 300 nM (values in parentheses) ([1]; 300 nM compound, 0.3 µM): (56) %

O=C1NCc2c1c1c(c3c2c2ccccc2n3CC2CO2)Cc2ccccc2-1 (racemic) [II-01a]
IC50 [1]: 92 nM

O=C1NCc2c1c1c(c3c2c2cc(Br)ccc2n3CC2CO2)Cc2ccccc2-1 (racemic) [II-57]
IC50 [2]: 380 nM

CCOCc1ccc2c(c1)c1c3c(c4c(c1n2CC1CO1)Cc1ccccc1-4)C(=O)NC3 (racemic) [II-58]
trkA kinase activity % Inh. @ 300 nM (values in parentheses) ([1]; 300 nM compound): (23) %

CC1(C2c3ccccc3-c3c4c(c5c([nH]c6ccccc65)c32)CNC4=O)CCCO1 (single isomer, unassigned) [II-30a]
inhibition at 0.3 µM [2]: 59% | IC50 [1]: 214 nM

CC1(C2c3ccccc3-c3c4c(c5c([nH]c6ccccc65)c32)CNC4=O)CCCO1 (single isomer, unassigned) [II-30b]
trkA kinase activity % Inh. @ 300 nM (values in parentheses) ([1]; 300 nM compound): (32) %

CCOC1COCC(C)(C2c3ccccc3-c3c4c(c5c([nH]c6ccccc65)c32)CNC4=O)O1 (single isomer, unassigned) [II-51d]
VEGF receptor kinase activity % Inh. @ 300 nM (values in parentheses) ([2]; 0.3 µM): (48) % | trkA kinase activity % Inh. @ 300 nM (values in parentheses) ([1]; 300 nM compound, 0.3 µM): (58) %

CCOC1CCC(CO)(C2c3cc(OC)ccc3-c3c4c(c5c([nH]c6ccccc65)c32)CNC4=O)O1 (single isomer, unassigned) [II-54]
Cell Score @ 100 nM (percent decrease in trk protein band) [3]: 2 (2=26-49%) | Cell Score @ 1 uM (percent decrease in trk protein band) [3]: 4 (4=76-100%) | IC50 [2]: 122 nM | IC50 [1]: 59 nM

CCOC(=O)C1C(=O)CCC1C1c2ccccc2-c2c3c(c4c([nH]c5ccccc54)c21)C(=O)NC3=O (single isomer, unassigned) [II-56]
trkA kinase activity % Inh. @ 300 nM (values in parentheses) ([1]; 300 nM compound): (12) %

O=C1NCc2c1c1c(c3[nH]c4ccccc4c23)C(C2CCCC2)c2ccccc2-1 (single isomer, unassigned) [II-59]
trkA kinase activity % Inh. @ 300 nM (values in parentheses) ([1]; 300 nM compound): (10) %

O=C1NCc2c1c1c(c3[nH]c4ccccc4c23)C(C2CCOC2=O)c2ccccc2-1 (single isomer, unassigned) [II-60]
VEGF receptor kinase activity % Inh. @ 300 nM (values in parentheses) [2]: (45) %

O=C1NCc2c1c1c(c3c2c2ccccc2n3C[C@@H]2CO2)Cc2ccccc2-1 [II-01b]
IC50 [2]: 266 nM

O=C1NCc2c1c1c(c3c2c2ccccc2n3C[C@H]2CO2)Cc2ccccc2-1 [II-01c]
IC50 [2]: 168 nM | IC50 [1]: 163 nM

O=C1CCCC(C2c3ccccc3-c3c4c(c5c([nH]c6ccccc65)c32)CNC4=O)O1 (centres unmarked) [II-05]
IC50 [1]: 130 nM

O=C1CCC(C2c3ccccc3-c3c4c(c5c([nH]c6ccccc65)c32)CNC4=O)O1 (centres unmarked) [II-06]
Cell Score @ 100 nM (percent decrease in trk protein band) [3]: 1 (1=1-25%) | Cell Score @ 1 uM (percent decrease in trk protein band) [3]: 2 (2=26-49%) | inhibition at 0.3 µM [2]: 56% | IC50 [1]: 90 nM

O=C1NCc2c1c1c(c3[nH]c4ccccc4c23)C(C2(c3cccs3)CCCO2)c2ccccc2-1 (centres unmarked) [II-09]
IC50 [1]: 134 nM

O=C1NCc2c1c1c(c3[nH]c4ccccc4c23)C(C2CSCC2O)c2ccccc2-1 (centres unmarked) [II-11]
IC50 [1]: 139 nM

CC1(C2c3ccccc3-c3c4c(c5c([nH]c6ccccc65)c32)CNC4=O)CCCCO1 (centres unmarked) [II-12]
IC50 [1]: 241 nM

O=C1NCc2c1c1c(c3[nH]c4ccccc4c23)C(C2CCCCO2)c2ccccc2-1 (centres unmarked) [II-13]
IC50 [1]: 186 nM

O=C1NCc2c1c1c(c3[nH]c4ccccc4c23)C(C2(O)CCC2)c2ccccc2-1 (centres unmarked) [II-18]
trkA kinase activity % Inh. @ 300 nM (values in parentheses) ([1]; 300 nM compound): (45) %

O=C1NCc2c1c1c(c3[nH]c4ccccc4c23)C(C2(CCCCl)CCCO2)c2ccccc2-1 (centres unmarked) [II-19]
inhibition at 0.3 µM [2]: 46% | IC50 [1]: 162 nM

CC(=O)OCC1(C2c3ccccc3-c3c4c(c5c([nH]c6ccccc65)c32)CNC4=O)CCCO1 (centres unmarked) [II-22]
IC50 [1]: 95 nM

CC(=O)N1CCC(O)(C2c3ccccc3-c3c4c(c5c([nH]c6ccccc65)c32)CNC4=O)CC1 (centres unmarked) [II-24]
trkA kinase activity % Inh. @ 300 nM (values in parentheses) ([1]; 300 nM compound): (34) %

CC1(C2c3ccccc3-c3c4c(c5c([nH]c6ccccc65)c32)CNC4=O)CC(=O)CO1 (centres unmarked) [II-27]
IC50 [1]: 166 nM

C=CC1(C2c3ccccc3-c3c4c(c5c([nH]c6ccccc65)c32)CNC4=O)CCCO1 (centres unmarked) [II-28]
IC50 [1]: 138 nM

CC1(C2c3ccccc3-c3c4c(c5c([nH]c6ccccc65)c32)C(=O)NC4)CCCO1 (centres unmarked) [II-37]
IC50 [1]: 191 nM

CCOC1CCC(C2c3ccccc3-c3c4c(c5c([nH]c6ccccc65)c32)CNC4=O)O1 (centres unmarked) [II-40a]
IC50 [1]: 54 nM

CCOC1CCC(C2c3ccccc3-c3c4c(c5c([nH]c6ccccc65)c32)CNC4=O)O1 (centres unmarked) [II-40b]
IC50 [2]: 1420 nM | IC50 [1]: 59 nM

O=C1NCc2c1c1c(c3[nH]c4ccccc4c23)C(C2(CCl)CCCO2)c2ccccc2-1 (centres unmarked) [II-44]
IC50 [2]: > 1000 nM | IC50 [1]: 80 nM

O=C1CCC(C2c3ccccc3-c3c4c(c5c([nH]c6ccccc65)c32)CNC4=O)=NN1 (centres unmarked) [II-49]
IC50 [1]: 321 nM

O=C1NCc2c1c1c(c3[nH]c4ccccc4c23)C(C2(O)CCCCC2)c2ccccc2-1 (centres unmarked) [II-50]
IC50 [1]: 113 nM

CCOC1COCC(C)(C2c3ccccc3-c3c4c(c5c([nH]c6ccccc65)c32)CNC4=O)O1 (centres unmarked) [II-51a]
IC50 [2]: 170 nM | inhibition at 0.3 µM ([1]; 300 nM compound, read-out: trkA kinase activity % Inh. @ 300 nM (values in parentheses)): 56%

— patent US6841567B1, “Cyclic substituted fused pyrrolocarbazoles and isoindolones” (Cephalon, Inc., priority 1999, dated 2005)
